Test results as given in US4292319A, “Antiphlogistic pharmaceutical compositions and method of use” (Boehringer Ingelheim GmbH, priority 1977, dated 1981).
Values joined by “and” are separate entries in the source; they are usually repeats but may differ in a detail not shown here. Identical values can stand only once. Like-named read-outs stand apart in the source and are kept apart here.

How the values were obtained:
[1] = system: kaolin-induced edema of the rat's hind paw; assay: Test for antiphlogistic effect against the kaolin-induced edema of the rat's hind paw; format: in vivo, rat (Chbb:THOM); details: for Thickness of the paw (mean): 5 h after kaolin; for Thickness of the paw (mean) / ED35: rat; for influence on acute anti-exudative (antiphlogistic) effect of non-steroidal antiphlogistics: kaolin-induced edema, simultaneous oral administration; for ED35: Rattus norvegicus, po, 5 h, kaolin edema
Experimental: (2) Test for antiphlogistic effect against the kaolin-induced edema of the rat's hind paw (tested substances: A, B, C and D)
The test was carried out on male Chbb:THOM-rats with a body weight between 125 and 150 gm. According to HILLEBRECHT [Arzneimittel-Forsch. 4, 607 (1954)], a subplantary injection of 0.05 ml of a 10% suspension of kaolin in an aqueous 0.85% sodium chloride solution in the hind paw was used for the provocation of the kaolin edema. The other hind paw was subplantarily injected with the same volume of an aqueous 0.85% sodium chloride solution.
The measurement of the thickness of the paws was carried out using the technique of DOEPFNER and […] [Int. Arch. Allergy appl. Immunol. 12, 89 (1958)] by way of the determination of the maximum sagittal diameter, using a measuring device with constant pressure, before and 5 hours after the provocation of the edema.
The test substances (the non-steroidal antiphlogistics or the mixture of non-steroidal antiphlogistics with pirenzepine dihydrochloride) were administered 30 minutes before provocation of the edema as a trituration in 1% tylose (1 ml/[…]) by way of an esophageal tube.
The diameter of the paw measured before the beginning of the test as well as the increase in diameter of the other paw caused by injection were subtracted from the diameter of the kaolin-treated paw, and this difference, being the real swelling value, was used for the further calculations.
(§1) From the swelling values obtained by administration of different dosages of non-steroidal antiphlogistics with or without the addition of pirenzepine dihydrochloride, using a linear regression analysis according to LINDNER [Statistische Methoden, 4th Ed., pages 148-162, Birkhauser, Basel, Switzerland (1964)], the ED35 values of the antiphlogistics were calculated with the confidence limits according to FIELLER [Quart. J. Pharm. Pharmacol. 17, 117 (1944)], the ED35 being the dosage which reduces the swelling of the paws by 35% in comparison to the control animals.

[2] = system: carrageenin-induced edema of the hind paw of the rat; assay: Test for antiphlogistic effect against the carrageenin-induced edema of the hind paw of the rat; format: in vivo; details: for Thickness of the paw (mean): oral, 3 h after carrageenin; for Thickness of the paw (mean) / ED35: rat; for influence on acute anti-exudative (antiphlogistic) effect of non-steroidal antiphlogistics: carrageenin-induced edema, simultaneous oral administration; for ED35: Rattus norvegicus, po, 3 h, carrageenin edema
Experimental: The test was carried out in analogy to the above test for the kaolin-induced edema. However, the edema was induced according to the method of WINTER et al. [J. Pharmacol. 141, 369 (1963)] by subplantary injection of 0.05 ml of a 1% solution of carrageenin in an aqueous 0.85% solution of sodium chloride. […] Three hours after the provocation of the edema the measurement which provided the basis for the evaluation of an anti-exudative effect was carried out.
as §1

[3] = system: ulcer; format: in vivo; details: several hundred cases, two years
[4] = Test for ulcerogenic effect on the stomach of the rat; format: in vivo, rat (Chbb:THOM); details: in vivo, po
Experimental: (§2) (1) Test for ulcerogenic effect on the stomach of the rat
(§3) The test was carried out on male and female (1:1) Chbb:THOM-rats with a body weight between 130 to 150 gm at the beginning of the study.
(§4) The test substances (non-steroidal anti-phlogistics or mixtures of these antiphlogistics with pirenzepine dihydrochloride) were administered as triturations in 1% tylose (1 ml/100 gm animal) by way of an esophageal tube once a day on three successive days.
(§5) Four hours after the last administration (i.e. on the 3rd day) the animals were killed by an over-dose of ether. The stomachs wer dissected, cut along the great curvature and washed under flowing water for subsequent macroscopic evaluation.

[5] = system: stomach of the rat; assay: as above; format: in vivo, rat (Chbb:THOM); details: oral, 3 subsequent days
Experimental: as §2, §3, §4, §5

[6] = system: gastro-intestinal tract; details: cited from earlier work
[7] = listed as pirenzepine dihydrochloride, dihydrochloride
[8] = clinical, depending upon experience, patients and compound primarily used
[9] = antiphlogistic 50 mgm/kg, without A
[10] = antiphlogistic 50 mgm/kg + A 400 mgm/kg
[11] = antiphlogistic 100 mgm/kg + A 400 mgm/kg
[12] = antiphlogistic 100 mgm/kg, without A
[13] = antiphlogistic 200 mgm/kg, without A

With `CN1CCN(CC(=O)N2c3ccccc3C(=O)Nc3cccnc32)CC1.Cl.Cl` [A, 5,11-dihydro-11-[(4-methyl-1-piperazinyl)-acetyl]-6H-pyrido[2,3-b] [1,4] benzodiazepin-6-one dihydrochloride] the “Thickness of the paw (mean)” value ([1]; Controls with A 100 mgm/kg, no antiphlogistic, oral, dihydrochloride) was 277.5 10^-2 mm and 276.3 10^-2 mm and 278.0 10^-2 mm, the “influence on acute anti-exudative (antiphlogistic) effect of non-steroidal antiphlogistics” value (“influence … of non-steroidal antiphlogistics” for short) ([1]; dihydrochloride) was “not reduced” and the “influence … of non-steroidal antiphlogistics” value [1, 7] was “does not lead to a reduction of the acute anti-exudative effect”. The “Thickness of the paw (mean)” value ([2]; Controls with A 400 mgm/kg, no antiphlogistic, dihydrochloride) was 272.0 10^-2 mm and 271.0 10^-2 mm, the “influence … of non-steroidal antiphlogistics” value ([2]; dihydrochloride) was “not reduced” and the “influence … of non-steroidal antiphlogistics” value [2, 7] was “does not lead to a reduction of the acute anti-exudative effect”. The ulcer rate ([3]; pirenzepine dihydrochloride together with indomethacin) was about 0%.

With `COc1ccc2c(c1)c(CC(=O)O)c(C)n2C(=O)c1ccc(Cl)cc1` [B, 1-(4-chloro-benzoyl)-5-methoxy-2-methyl-1H-indole-3-aceticacid] the TD50 ([4]; with A 50 mgm/kg, oral, 3 subsequent days, read-out: ED50-ulcer) was 3.3 mg/kg, the TD50 ([4]; with A 100 mgm/kg, oral, 3 subsequent days, read-out: ED50-ulcer) was 4.9 mg/kg and the TD50 ([4]; without A, oral, 3 subsequent days, read-out: ED50-ulcer) was 2.55 mg/kg. The “Ratio of animals with ulcers” value ([5]; antiphlogistic 2 mgm/kg, without A) was 4/18, the “Ratio of animals with ulcers” value ([5]; antiphlogistic 2.8 mgm/kg + A 50 mgm/kg) was 4/16 and the “Ratio of animals with ulcers” value ([5]; antiphlogistic 2.8 mgm/kg + A 100 mgm/kg) was 4/16. For the same compound, the “Ratio of animals with ulcers” value ([5]; antiphlogistic 2.8 mgm/kg, without A) was 11/18, the “Ratio of animals with ulcers” value ([5]; antiphlogistic 4.0 mgm/kg + A 50 mgm/kg) was 12/16 and the “Ratio of animals with ulcers” value ([5]; antiphlogistic 4.0 mgm/kg + A 100 mgm/kg) was 5/15. For the same compound, the “Ratio of animals with ulcers” value ([5]; antiphlogistic 4 mgm/kg, without A) was 16/18, the “Ratio of animals with ulcers” value ([5]; antiphlogistic 5.66 mgm/kg + A 50 mgm/kg) was 13/15 and the “Ratio of animals with ulcers” value ([5]; antiphlogistic 5.66 mgm/kg + A 100 mgm/kg) was 8/15. The “Ratio of animals with ulcers” value ([5]; antiphlogistic 8.0 mgm/kg + A 100 mgm/kg) was 15/15, the ED35 ([1]; with A 100 mgm/kg) was 3 mg/kg and the ED35 ([1]; without A) was 4.3 mg/kg. The “Thickness of the paw (mean)” value ([1]; antiphlogistic 1.5 mgm/kg + A 100 mgm/kg, oral) was 200.3 10^-2 mm, the “Thickness of the paw (mean)” value ([1]; antiphlogistic 1.5 mgm/kg, without A, oral) was 214.8 10^-2 mm and the “Thickness of the paw (mean)” value ([1]; antiphlogistic 3.0 mgm/kg + A 100 mgm/kg, oral) was 178.3 10^-2 mm. The “Thickness of the paw (mean)” value ([1]; antiphlogistic 3.0 mgm/kg, without A, oral) was 189.0 10^-2 mm, the “Thickness of the paw (mean)” value ([1]; antiphlogistic 6.0 mgm/kg + A 100 mgm/kg, oral) was 162.9 10^-2 mm and the “Thickness of the paw (mean)” value ([1]; antiphlogistic 6.0 mgm/kg, without A, oral) was 164.5 10^-2 mm. For the same compound, the ulcer rate ([3]; without pirenzepine dihydrochloride) was 37% and the “gastro-intestinal incompatabilities encountered, share of all cases” value [6, 8] was 25-37%.

With `OCCCCc1ccc(-c2ccccc2)cc1` [D, 4-(4-biphenylyl)-butanol] the TD50 ([4]; ED50-ulcer) was 44.5 mg/kg, the “Ratio of animals with ulcers” value ([5]; antiphlogistic 28.1 mgm/kg, without A) was 4/17 and the “Ratio of animals with ulcers” value ([5]; antiphlogistic 37.5 mgm/kg, without A) was 5/17. For the same compound, the “Ratio of animals with ulcers” value ([5]; antiphlogistic 50.0 mgm/kg + A 50 mgm/kg) was 1/16, the “Ratio of animals with ulcers” value ([5]; antiphlogistic 50 mgm/kg + A 100 mgm/kg) was 2/16 and the “Ratio of animals with ulcers” value [5, 9] was 9/17. The “Ratio of animals with ulcers” value ([5]; antiphlogistic 67.5 mgm/kg + A 50 mgm/kg) was 6/16, the “Ratio of animals with ulcers” value ([5]; antiphlogistic 67.5 mgm/kg + A 100 mgm/kg) was 5/15 and the “Ratio of animals with ulcers” value ([5]; antiphlogistic 67.5 mgm/kg, without A) was 15/17. For the same compound, the “Ratio of animals with ulcers” value ([5]; antiphlogistic 91.1 mgm/kg + A 50 mgm/kg) was 11/14, the “Ratio of animals with ulcers” value ([5]; antiphlogistic 91.1 mgm/kg + A 100 mgm/kg) was 7/15 and the “Ratio of animals with ulcers” value ([5]; antiphlogistic 123.0 mgm/kg + A 50 mgm/kg) was 13/14. For the same compound, the “Ratio of animals with ulcers” value ([5]; antiphlogistic 123.0 mgm/kg + A 100 mgm/kg) was 10/13, the ED35 ([1]; with A 100 mgm/kg, oral, read-out: ED35) was 12.1 mg/kg and the ED35 ([1]; without A, oral, read-out: ED35) was 11.2 mg/kg. For the same compound, the “Thickness of the paw (mean)” value ([1]; antiphlogistic 6.25 mgm/kg + A 100 mgm/kg, oral) was 215.5 10^-2 mm, the “Thickness of the paw (mean)” value ([1]; antiphlogistic 6.25 mgm/kg, without A, oral) was 214.3 10^-2 mm and the “Thickness of the paw (mean)” value ([1]; antiphlogistic 12 mgm/kg + A 100 mgm/kg, oral) was 180.4 10^-2 mm. For the same compound, the “Thickness of the paw (mean)” value ([1]; antiphlogistic 12 mgm/kg, without A, oral) was 165.0 10^-2 mm, the “Thickness of the paw (mean)” value ([1]; antiphlogistic 25 mgm/kg + A 100 mgm/kg, oral) was 141.0 10^-2 mm and the “Thickness of the paw (mean)” value ([1]; antiphlogistic 25 mgm/kg, without A, oral) was 124.0 10^-2 mm.

For `CCCCC1C(=O)N(c2ccccc2)N(c2ccccc2)C1=O` [G, 4-butyl-1,2-diphenyl-3,5-pyrazolidinedione], the TD50 ([4]; ED50-ulcer) was 69 mg/kg, the “Ratio of animals with ulcers” value ([5]; antiphlogistic 50 mgm/kg + A 200 mgm/kg) was 2/20 and the “Ratio of animals with ulcers” value [5, 10] was 0/20. The “Ratio of animals with ulcers” value [5, 9] was 4/20, the “Ratio of animals with ulcers” value ([5]; antiphlogistic 71 mgm/kg + A 200 mgm/kg) was 8/20 and the “Ratio of animals with ulcers” value ([5]; antiphlogistic 71 mgm/kg + A 400 mgm/kg) was 0/20. For the same compound, the “Ratio of animals with ulcers” value ([5]; antiphlogistic 100 mgm/kg + A 200 mgm/kg) was 15/20, the “Ratio of animals with ulcers” value [5, 11] was 6/20 and the “Ratio of animals with ulcers” value [5, 12] was 14/20. For the same compound, the “Ratio of animals with ulcers” value ([5]; antiphlogistic 200 mgm/kg + A 200 mgm/kg) was 20/20, the “Ratio of animals with ulcers” value ([5]; antiphlogistic 200 mgm/kg + A 400 mgm/kg) was 14/20 and the “Ratio of animals with ulcers” value [5, 13] was 20/20. For the same compound, the “Ratio of animals with ulcers” value ([5]; antiphlogistic 400 mgm/kg + A 400 mgm/kg) was 18/19, the ED35 ([2]; with A 400 mgm/kg) was 45.7 mg/kg and the ED35 ([2]; without A) was 51.7 mg/kg. For the same compound, the “Thickness of the paw (mean)” value ([2]; antiphlogistic 25 mgm/kg + A 400 mgm/kg) was 205.0 10^-2 mm, the “Thickness of the paw (mean)” value ([2]; antiphlogistic 25 mgm/kg, without A) was 216.8 10^-2 mm and the “Thickness of the paw (mean)” value [2, 10] was 173.5 10^-2 mm. The “Thickness of the paw (mean)” value [2, 9] was 175.8 10^-2 mm, the “Thickness of the paw (mean)” value [2, 11] was 138.9 10^-2 mm and the “Thickness of the paw (mean)” value [2, 12] was 153.8 10^-2 mm. The “Thickness of the paw (mean)” value [2, 13] was 125.0 10^-2 mm and the “gastro-intestinal incompatabilities encountered, share of all cases” value ([6]; human, in vivo) was 25-37%.

In the case of `CCCC1C(=O)N2C(N(C)C)=Nc3ccc(C)cc3N2C1=O` (stereo not drawn) [azapropazone, 5-dimethylamino-9-methyl-2-propyl-1H-pyrazolo[1,2-a][1,2,4]benzotriazine-1,3(2H)-dione], the “gastro-intestinal incompatabilities encountered, share of all cases” value [6, 8] is listed as 25-37%.
